# Assay results reported in ChEMBL document CHEMBL3390836, “Mannich- and LedererManasse-based analogues of the natural product S-(+)-curcuphenol as cancer proliferation and migration inhibitors” (Medchemcomm, 2012).
# What was measured:
# Assay type in all cases: functional
# A549 = assay: Cytotoxicity against human A549 cells assessed as cell growth at 10^-7 M after 48 hrs by SRB assay relative to control; conditions: A549, 48 h, read-out: Activity
# TK-10 = assay: Cytotoxicity against human TK10 cells after 48 hrs by SRB assay; conditions: TK-10, 48 h
# [1] = Cytotoxicity against human OVCAR3 cells after 48 hrs by SRB assay; conditions: OVCAR-3, 48 h
# [2] = Cytotoxicity against human OVCAR5 cells assessed as cell growth at 10^-4 M after 48 hrs by SRB assay relative to control; conditions: OVCAR-5, 48 h, read-out: Activity
# LOX IMVI = assay: Cytotoxicity against human LOXIMVI cells assessed as cell growth at 10^-7 M after 48 hrs by SRB assay relative to control; conditions: read-out: Activity
# NCI-H322M [3] = assay: Cytotoxicity against human NCI-H322M cells after 48 hrs by SRB assay
# CAKI-1 [4] = assay: Cytotoxicity against human Caki1 cells assessed as cell growth at 10^-4 M after 48 hrs by SRB assay relative to control; conditions: CAKI-1, 48 h, read-out: Activity
# T47D [5] = assay: Cytotoxicity against human T47D cells assessed as cell growth at 10^-6 M after 48 hrs by SRB assay relative to control; conditions: read-out: Activity
# RXF 393 = assay: Cytotoxicity against human RXF393 cells assessed as cell growth at 10^-7 M after 48 hrs by SRB assay relative to control; conditions: RXF 393, 48 h, read-out: Activity
# NCI-H23 [6] = assay: Cytotoxicity against human NCI-H23 cells assessed as cell growth at 10^-8 M after 48 hrs by SRB assay relative to control; conditions: NCI-H23, 48 h, read-out: Activity
# CAKI-1 [7] = assay: Cytotoxicity against human Caki1 cells assessed as cell growth at 10^-6 M after 48 hrs by SRB assay relative to control; conditions: CAKI-1, 48 h, read-out: Activity
# SW-620 [8] = assay: Cytotoxicity against human SW620 cells after 48 hrs by SRB assay; conditions: SW-620, 48 h
# T47D [9] = assay: Cytotoxicity against human T47D cells assessed as cell growth at 10^-7 M after 48 hrs by SRB assay relative to control; conditions: read-out: Activity
# [10] = Cytotoxicity against human PC3 cells after 48 hrs by SRB assay; conditions: PC-3, 48 h
# CAKI-1 [11] = assay: Cytotoxicity against human Caki1 cells after 48 hrs by SRB assay; conditions: CAKI-1, 48 h
# A498 = assay: Cytotoxicity against human A498 cells after 48 hrs by SRB assay; conditions: A498, 48 h
# SK-MEL-28 = assay: Cytotoxicity against human SK-MEL-28 cells after 48 hrs by SRB assay; conditions: SK-MEL-28, 48 h
# [12] = Cytotoxicity against human HCT15 cells assessed as cell growth at 10^-4 M after 48 hrs by SRB assay relative to control; conditions: HCT-15, 48 h, read-out: Activity
# [13] = Cytotoxicity against human UO31 cells assessed as cell growth at 10^-6 M after 48 hrs by SRB assay relative to control; conditions: UO-31, 48 h, read-out: Activity
# SNB-19 = assay: Cytotoxicity against human SNB19 cells assessed as cell growth at 10^-4 M after 48 hrs by SRB assay relative to control; conditions: SNB-19, 48 h, read-out: Activity
# [14] = Cytotoxicity against human UACC62 cells assessed as cell growth at 10^-4 M after 48 hrs by SRB assay relative to control; conditions: UACC-62, 48 h, read-out: Activity
# NCI-H226 = assay: Cytotoxicity against human NCI-H226 cells after 48 hrs by SRB assay; conditions: NCI-H226, 48 h
# 786-0 [15] = assay: Cytotoxicity against human 786-0 cells after 48 hrs by SRB assay; conditions: 786-0, 48 h
# MDA-MB-468 = assay: Cytotoxicity against human MDA-MB-468 cells assessed as cell growth at 10^-4 M after 48 hrs by SRB assay relative to control; conditions: MDA-MB-468, 48 h, read-out: Activity
# [16] = Cytotoxicity against human EKVX cells after 48 hrs by SRB assay
# [17] = Cytotoxicity against human HCT15 cells assessed as cell growth at 10^-7 M after 48 hrs by SRB assay relative to control; conditions: HCT-15, 48 h, read-out: Activity
# Malme-3M [18] = assay: Cytotoxicity against human MALME-3M cells assessed as cell growth at 10^-4 M after 48 hrs by SRB assay relative to control; conditions: read-out: Activity
# [19] = Cytotoxicity against human OVCAR4 cells assessed as cell growth at 10^-4 M after 48 hrs by SRB assay relative to control; conditions: OVCAR-4, 48 h, read-out: Activity
# SK-MEL-5 = assay: Cytotoxicity against human SK-MEL-5 cells assessed as cell growth at 10^-7 M after 48 hrs by SRB assay relative to control; conditions: SK-MEL-5, 48 h, read-out: Activity
# [20] = Cytotoxicity against human OVCAR8 cells assessed as cell growth at 10^-6 M after 48 hrs by SRB assay relative to control; conditions: OVCAR-8, 48 h, read-out: Activity
# NCI-H23 [21] = assay: Cytotoxicity against human NCI-H23 cells assessed as cell growth at 10^-4 M after 48 hrs by SRB assay relative to control; conditions: NCI-H23, 48 h, read-out: Activity
# Malme-3M [22] = assay: Cytotoxicity against human MALME-3M cells after 48 hrs by SRB assay
# SF-268 = assay: Cytotoxicity against human SF268 cells assessed as cell growth at 10^-8 M after 48 hrs by SRB assay relative to control; conditions: SF-268, 48 h, read-out: Activity
# SW-620 [23] = assay: Cytotoxicity against human SW620 cells assessed as cell growth at 10^-4 M after 48 hrs by SRB assay relative to control; conditions: SW-620, 48 h, read-out: Activity
# 786-0 [24] = assay: Cytotoxicity against human 786-0 cells assessed as cell growth at 10^-4 M after 48 hrs by SRB assay relative to control; conditions: 786-0, 48 h, read-out: Activity
# NCI-H322M [25] = assay: Cytotoxicity against human NCI-H322M cells assessed as cell growth at 10^-6 M after 48 hrs by SRB assay relative to control; conditions: read-out: Activity
# [26] = read-out: LC50 (the source's name)
smiles,measurement,setting,value
CC(C)=CCC[C@H](C)c1ccc(C)c2c1OCN(CC1CCNCC1)C2,growth at 0.1 µM,A549,90%
same,GI50,TK-10,14.4 µM
same,LC50,TK-10,59.5 µM
same,TGI,TK-10,29.3 µM
same,GI50,[1],15.6 µM
same,LC50,[1],62.1 µM
same,TGI,[1],31.1 µM
same,growth at 100 µM,[2],-90%
same,growth at 0.1 µM,LOX IMVI,92%
same,GI50,NCI-H322M [3],19.4 µM
same,LC50,NCI-H322M [3],77.8 µM
same,TGI,NCI-H322M [3],38.8 µM
same,growth at 100 µM,CAKI-1 [4],-69%
same,growth at 1 µM,T47D [5],91%
same,growth at 0.1 µM,RXF 393,112%
same,growth at 0.01 µM,NCI-H23 [6],94%
same,growth at 1 µM,CAKI-1 [7],98%
same,GI50,SW-620 [8],9.87 µM
same,TGI,SW-620 [8],23.1 µM
same,CC50,SW-620 [8]; [26],53.5 µM
same,growth at 0.1 µM,T47D [9],94%
same,GI50,[10],16.5 µM
same,LC50,[10],> 100 µM
same,TGI,[10],42.1 µM
same,GI50,CAKI-1 [11],17.7 µM
same,TGI,CAKI-1 [11],36.8 µM
same,CC50,CAKI-1 [11]; [26],76.3 µM
same,GI50,A498,12.3 µM
same,TGI,A498,26 µM
same,CC50,A498; [26],55 µM
same,GI50,SK-MEL-28,15.7 µM
same,TGI,SK-MEL-28,28.3 µM
same,CC50,SK-MEL-28; [26],54.8 µM
same,growth at 100 µM,[12],-83%
same,growth at 1 µM,[13],91%
same,growth at 100 µM,SNB-19,-82%
same,growth at 100 µM,[14],-92%
same,GI50,NCI-H226,17.7 µM
same,LC50,NCI-H226,64.5 µM
same,TGI,NCI-H226,33.8 µM
same,GI50,786-0 [15],12.1 µM
same,LC50,786-0 [15],56.9 µM
same,TGI,786-0 [15],26.3 µM
same,growth at 100 µM,MDA-MB-468,-80%
same,GI50,[16],20.7 µM
same,LC50,[16],> 100 µM
same,TGI,[16],66.9 µM
same,growth at 0.1 µM,[17],91%
same,growth at 100 µM,Malme-3M [18],-76%
same,growth at 100 µM,[19],-91%
same,growth at 0.1 µM,SK-MEL-5,88%
same,growth at 1 µM,[20],100%
same,growth at 100 µM,NCI-H23 [21],-71%
same,GI50,Malme-3M [22],17.7 µM
same,TGI,Malme-3M [22],35.3 µM
same,CC50,Malme-3M [22]; [26],70.2 µM
same,growth at 0.01 µM,SF-268,102%
same,growth at 100 µM,SW-620 [23],-87%
same,growth at 100 µM,786-0 [24],-87%
same,growth at 1 µM,NCI-H322M [25],108%
